# From publication PMC7494392 (Journal of Pain Research, 2020)
# Biological target: TRPV1 (Rattus norvegicus, UniProt O35433)
# Experiment: Fura-2 calcium imaging in rat DRG neurons
# Assay type: cell-based
# Chain of TRPV1 (O35433 whole entry): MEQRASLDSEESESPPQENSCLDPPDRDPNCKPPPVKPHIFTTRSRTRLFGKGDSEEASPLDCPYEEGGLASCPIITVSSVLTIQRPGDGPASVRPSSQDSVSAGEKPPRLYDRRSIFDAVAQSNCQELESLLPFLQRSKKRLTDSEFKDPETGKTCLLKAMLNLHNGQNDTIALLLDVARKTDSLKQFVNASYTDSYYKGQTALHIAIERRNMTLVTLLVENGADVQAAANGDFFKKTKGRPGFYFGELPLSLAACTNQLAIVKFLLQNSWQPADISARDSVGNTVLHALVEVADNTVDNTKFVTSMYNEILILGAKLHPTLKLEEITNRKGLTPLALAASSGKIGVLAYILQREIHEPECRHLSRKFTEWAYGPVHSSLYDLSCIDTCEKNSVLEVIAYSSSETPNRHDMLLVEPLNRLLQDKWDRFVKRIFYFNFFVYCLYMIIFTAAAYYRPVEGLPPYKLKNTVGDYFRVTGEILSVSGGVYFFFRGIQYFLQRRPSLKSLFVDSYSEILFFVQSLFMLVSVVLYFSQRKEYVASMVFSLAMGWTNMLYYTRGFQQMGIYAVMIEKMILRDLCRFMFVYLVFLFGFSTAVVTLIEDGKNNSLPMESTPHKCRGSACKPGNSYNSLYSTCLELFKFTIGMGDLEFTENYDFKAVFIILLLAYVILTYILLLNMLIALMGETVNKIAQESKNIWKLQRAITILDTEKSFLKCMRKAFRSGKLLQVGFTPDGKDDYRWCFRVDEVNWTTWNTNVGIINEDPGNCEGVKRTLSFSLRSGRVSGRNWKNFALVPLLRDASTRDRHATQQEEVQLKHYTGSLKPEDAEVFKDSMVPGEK
smiles,measurement,value
"C=C(C)[C@@H]1CCC(C)=C[C@H]1c1c(O)cc(CCCCC)cc1O [CBD, Cannabidiol]",EC50,1 to 10 µM
